Biological target: T1, Solute carrier family 12 member 5 (Homo sapiens, UniProt Q9H2X9)
T1 sequence (Q9H2X9 whole entry): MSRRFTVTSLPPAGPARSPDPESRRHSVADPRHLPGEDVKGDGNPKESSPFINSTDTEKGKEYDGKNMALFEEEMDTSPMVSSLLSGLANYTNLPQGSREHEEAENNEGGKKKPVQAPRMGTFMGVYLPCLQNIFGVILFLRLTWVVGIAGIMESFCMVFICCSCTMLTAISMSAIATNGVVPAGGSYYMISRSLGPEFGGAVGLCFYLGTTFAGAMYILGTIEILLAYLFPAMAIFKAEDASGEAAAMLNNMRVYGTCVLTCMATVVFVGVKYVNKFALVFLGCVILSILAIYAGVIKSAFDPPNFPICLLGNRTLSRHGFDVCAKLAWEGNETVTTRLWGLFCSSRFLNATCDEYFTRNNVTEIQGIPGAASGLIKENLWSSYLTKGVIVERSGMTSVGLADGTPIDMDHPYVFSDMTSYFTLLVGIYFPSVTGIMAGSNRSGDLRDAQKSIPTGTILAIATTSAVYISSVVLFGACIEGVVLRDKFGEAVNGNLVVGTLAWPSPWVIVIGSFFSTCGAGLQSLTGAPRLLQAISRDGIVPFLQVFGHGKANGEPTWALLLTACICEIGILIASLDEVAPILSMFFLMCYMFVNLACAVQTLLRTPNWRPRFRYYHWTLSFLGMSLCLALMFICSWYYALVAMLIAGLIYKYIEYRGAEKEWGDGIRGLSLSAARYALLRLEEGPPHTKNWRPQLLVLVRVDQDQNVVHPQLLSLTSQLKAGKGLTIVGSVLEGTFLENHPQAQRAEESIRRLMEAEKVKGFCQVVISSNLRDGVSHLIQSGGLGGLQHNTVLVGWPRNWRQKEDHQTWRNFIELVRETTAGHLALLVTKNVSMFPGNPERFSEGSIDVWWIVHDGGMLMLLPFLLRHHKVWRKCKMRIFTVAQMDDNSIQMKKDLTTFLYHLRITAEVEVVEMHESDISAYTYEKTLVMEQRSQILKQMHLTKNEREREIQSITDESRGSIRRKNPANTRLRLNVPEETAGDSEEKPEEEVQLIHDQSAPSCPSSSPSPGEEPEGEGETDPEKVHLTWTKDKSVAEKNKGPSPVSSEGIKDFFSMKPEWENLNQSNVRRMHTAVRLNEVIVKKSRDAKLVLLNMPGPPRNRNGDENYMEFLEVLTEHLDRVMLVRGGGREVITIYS
Experiment: modulation of KCC2 K-Cl transport – cell-based, assay 2, dose response (AID 1723)

[1] = inactive by the depositor's call

Row | EC50 [µM] | EC50 [1] [µM] | Structure (SMILES)
1 | 12.9 | – | Cc1[nH]n2c(=O)cc(C(C)C)nc2c1-c1ccccc1
2 | – | 0.61 | Cc1noc(/C=C/N(C)C)c1S(=O)(=O)N(C)CC(=O)NC1CCCCC1 [MLS000047204]
3 | 1.74 | – | COC(=O)c1sccc1NC(=S)OC [3-(methoxycarbothioylamino)thiophene-2-carboxylic acid methyl ester]
4 | 2.57 | – | N=C1SCC(=O)N1c1ncc(Cc2cccc(Cl)c2)s1 [2-azanylidene-3-[5-[(3-chlorophenyl)methyl]-1,3-thiazol-2-yl]-1,3-thiazolidin-4-one]
5 | 1.86 | – | Cc1nn(-c2nc3ccccc3[nH]2)c(N)c1-c1ccccc1 [MLS000063763]
6 | 14.1 | – | COc1cc(NC(=S)NC(=O)c2ccco2)ccc1NC(=O)C(C)C [MLS000672338]
7 | 244 | – | O=C(NC(=S)Nc1nc(-c2cccc([N+](=O)[O-])c2)cs1)c1ccccc1Cl [2-chloranyl-N-[[4-(3-nitrophenyl)-1,3-thiazol-2-yl]carbamothioyl]benzamide]
8 | 8.12 | – | S=c1nc(-c2ccc3c(c2)CCO3)cc[nH]1
9 | – | 138 | Cc1ccc(Cn2c(SCC(=O)Nc3cc(C)on3)nc3ccccc3c2=O)cc1 [2-[[4-keto-3-(4-methylbenzyl)quinazolin-2-yl]thio]-N-(5-methylisoxazol-3-yl)acetamide]
10 | 53.1 | – | O=[N+]([O-])c1ccccc1C=C[CH+][N-]n1c(-c2ccc(Cl)cc2)n[nH]c1=S [MLS000555506]
11 | 1.86 | – | CC(=O)c1cccc(NC(=S)NC(=O)c2ccc(C)cc2)c1 [MLS000687464]
12 | 2.29 | – | NC(=S)NN=C1C(=O)N(Cc2ccc(F)cc2)c2ccccc21 [1-[(Z)-[1-[(4-fluorophenyl)methyl]-2-oxidanylidene-indol-3-ylidene]amino]thiourea]
13 | 14 | – | Fc1cccc(F)c1C=NNC(=S)Nc1cccnc1 [1-[(2,6-difluorobenzylidene)amino]-3-(3-pyridyl)thiourea]
14 | 0.996 | – | COC(=O)[C@@H](NC(=O)O[C@@H]1C(=O)c2ccc(OC)cc2O[C@H]1c1cccc(C(F)(F)F)c1)C(C)C [(2S)-2-[[(2S,3S)-4-keto-7-methoxy-2-[3-(trifluoromethyl)phenyl]chroman-3-yl]oxycarbonylamino]-3-methyl-butyric acid methyl ester]
15 | 25.5 | – | O=c1c2ccccc2[nH]c(=S)n1CCN1CCC(=C(c2ccc(F)cc2)c2ccc(F)cc2)CC1 [SMR000058550]
16 | 45.3 | – | Oc1ccccc1CN=Nc1nc2ccccc2o1 [(6E)-6-[(1,3-benzoxazol-2-ylhydrazo)methylidene]-1-cyclohexa-2,4-dienone]
17 | 14.2 | – | CCOc1ccc2nc(Sc3cc(O)n(-c4cccc(OC)c4)c3O)sc2c1 [3-(6-Ethoxy-benzothiazol-2-ylsulfanyl)-1-(3-methoxy-phenyl)-pyrrolidine-2,5-dione]
18 | 11.2 | – | S=C(NCCc1ccccc1)NN=Cc1cccc(Cl)c1Cl [1-[(2,3-dichlorobenzylidene)amino]-3-phenethyl-thiourea]
19 | 0.548 | – | O=[N+]([O-])c1ccc(-c2cn(-c3ccccc3F)c(=S)[nH]2)cc1
20 | 5.86 | – | CCOc1[nH]n(-c2ccccc2)c(=O)c1C=Nc1ccc(F)cc1F [(4E)-4-[[[2,4-bis(fluoranyl)phenyl]amino]methylidene]-5-ethoxy-2-phenyl-pyrazol-3-one]

Row | Structure (SMILES) | EC50 [µM] | EC50 [1] [µM]
21 | CNc1ccc2oc(C[C@H]3O[C@@]4(CC[C@H]3C)O[C@H]([C@H](C)C(=O)c3ccc[nH]3)[C@H](C)C[C@H]4C)nc2c1C(=O)O [MLS001056783] | 15.4 | –

From BindingDB's records for doi:10.7270/Q2PN942B (Vanderbilt Screening Center for GPCRs, Ion Channels and …, 2009)
